Activity calls are given as the source filed them. No cut-off for these calls is given here.
Each molecule was assayed against T1, Interleukin-8 receptors, CXCR1/CXCR2 (Homo sapiens) (UniProt P25025+P25024) (assay: Inhibition of CXCL8-induced chemotaxis of human polymorphonuclear cells at 10e-8 M: not active).
Format: functional
`CC(C)Cc1ccc([C@@H](C)C(=O)NS(=O)(=O)CCCN)cc1` was tested, and the inhibition was “inactive”.
In the case of `CC(C)Cc1ccc([C@@H](C)C(=O)NC2CCN(C)C2)cc1` (some centres undefined), the inhibition is reported as “inactive”.
`CC(C)Cc1ccc([C@@H](C)C(=O)NS(=O)(=O)Cc2cccnc2)cc1` was tested, and the inhibition was “inactive”.
`CC(C)Cc1ccc([C@@H](C)C(=O)N[C@H](CS)C(=O)O)cc1` was tested, and the inhibition was “inactive”.
`CC(C(=O)O)c1cccc(C(=O)O)c1` (centres undefined) was tested, and the inhibition was “inactive”.
With `CC(C)Cc1ccc([C@@H](C)C(=O)NCCCN)cc1` the inhibition was “inactive”.
With `CCCCc1cccc(C(C)C(=O)O)c1` (centres undefined) the inhibition was “inactive”.
With `CC(C)Cc1ccc([C@@H](C)C(=O)NC2CCOCC2)cc1` the inhibition was “inactive”.
For `C/C=C/c1cccc(C(C)C(=O)O)c1` (centres undefined), the inhibition was “inactive”.
In the case of `CC(C)Cc1ccc([C@@H](C)C(=O)N2CCCCC2)cc1`, the inhibition is reported as “inactive”.
With `CC(C)Cc1ccc([C@@H](C)C(=O)NCCCC(=O)O)cc1` the inhibition was “inactive”.
In the case of `CC(C)Cc1ccc([C@@H](C)C(=O)NC2CCOC2)cc1` (some centres undefined), the inhibition is reported as “inactive”.
With `CC(C(=O)O)c1ccc(CC2CCCCC2)cc1` (centres undefined) the inhibition was “inactive”.
With `CC(C)Cc1ccc([C@@H](C)C(=O)NS(=O)(=O)c2ccccc2)cc1` the inhibition was “inactive”.
`CC(C)Cc1cccc(C(C)C(=O)O)c1` (centres undefined) was tested, and the inhibition was “inactive”.
With `CC(C)Cc1ccc([C@@H](C)C(=O)NCCC[N+](C)(C)C)cc1` the inhibition was “inactive”.
For `COC(=O)C(C)c1ccc(CC(C)C)cc1` (centres undefined), the inhibition was “inactive”.
In the case of `CC(C(=O)O)c1ccc(Cc2ccccc2)cc1` (centres undefined), the inhibition is reported as “inactive”.
In the case of `CC(C(=O)O)c1ccc(-c2cccs2)cc1` (centres undefined), the inhibition is reported as “inactive”.
With `CC(C(=O)O)c1ccc(O)cc1` (centres undefined) the inhibition was “inactive”.
In the case of `CC(C(=O)O)c1ccc(C(C)(C)C)cc1` (centres undefined), the inhibition is reported as “inactive”.
With `CC(C)Cc1ccc([C@@H](C)C(=O)NS(=O)(=O)C(F)(F)F)cc1` the inhibition was “inactive”.
In the case of `CC(C)Cc1ccc([C@@H](C)C(=O)NS(=O)(=O)Cc2ccc(Cl)cc2)cc1`, the inhibition is reported as “inactive”.
In the case of `CC(C)Cc1ccc([C@@H](C)C(=O)N(C)C)cc1`, the inhibition is reported as “inactive”.
`CC(C)Cc1ccc([C@@H](C)C(=O)NCCCCCO)cc1` was tested, and the inhibition was “inactive”.
For `CC(C)Cc1ccc([C@@H](C)C(=O)NC(C)C(=O)O)cc1` (single isomer, unassigned), the inhibition was “inactive”.
In the case of `CC(C)Cc1ccc([C@@H](C)C(=O)NCCC(=O)O)cc1`, the inhibition is reported as “inactive”.
In the case of `CC(=O)c1cccc(C(C)C(=O)O)c1` (centres undefined), the inhibition is reported as “inactive”.
For `CC(C)Cc1ccc([C@@H](C)C(=O)NS(=O)(=O)CCCN2C(=O)c3ccccc3C2=O)cc1`, the inhibition was “inactive”.
For `COC(=O)[C@@H](C)NC(=O)[C@H](C)c1ccc(CC(C)C)cc1`, the inhibition was “inactive”.
`CC(C(=O)O)c1ccc(-c2ccccc2)cc1` (centres undefined) was tested, and the inhibition was “inactive”.
With `COC(=O)CNC(=O)[C@H](C)c1ccc(CC(C)C)cc1` the inhibition was “inactive”.

Each molecule was assayed against T1, Interleukin-8 receptors, CXCR1/CXCR2 (Homo sapiens) (assay: Inhibition of interleukin-8 induced chemotaxis of human polymorphonuclear cells at 10 nM).
In the case of `CC(C)Cc1ccc([C@@H](C)C(=O)Nc2ccccc2)cc1`, the inhibition is reported as 30%.
`CC(C)c1ccc(C(C)C(=O)O)cc1` (centres undefined) showed an inhibition of 32%.
`CCS(=O)(=O)NC(=O)[C@H](C)c1ccc(CC(C)C)cc1` showed an inhibition of 40%.
For `CC(C(=O)O)c1cccc(Cc2ccccc2)c1` (centres undefined), the inhibition was 30%.
With `CCC(C)c1cccc(C(C)C(=O)O)c1` (centres undefined) the inhibition was 50%.
`C[C@H](C(=O)NS(C)(=O)=O)c1ccc(-c2ccccc2)c(F)c1` showed an inhibition of 19%.
Molecule `CC(C)Oc1ccc(C(C)C(=O)O)cc1` (centres undefined) has an inhibition of 38%.
For `C[C@@H](C(=O)NS(C)(=O)=O)c1ccc(-c2ccccc2)c(F)c1`, the inhibition was 30%.
In the case of `CCNC(=O)[C@H](C)c1ccc(CC(C)C)cc1`, the inhibition is reported as 26%.
In the case of `CNC(=O)[C@H](C)c1ccc(CC(C)C)cc1`, the inhibition is reported as 40%.

The molecules below were run against T1, Interleukin-8 receptors, CXCR1/CXCR2 (Homo sapiens) (assay: Inhibition of CXCL8-induced chemotaxis of human polymorphonuclear cells at 10e-6 M: not active).
Format: functional
For `CC(C(=O)NS(C)(=O)=O)c1ccc2c(c1)[nH]c1ccc(Cl)cc12` (centres undefined), the inhibition was “inactive”.

What follows are molecules tested against T2, Interleukin-8 receptors, CXCR1/CXCR2 (Homo sapiens, UniProt P25025+P25024) (assay: Inhibition of CXCL8-induced chemotaxis in human polymorphonuclear cells).
T2 sequence (P25025 whole entry): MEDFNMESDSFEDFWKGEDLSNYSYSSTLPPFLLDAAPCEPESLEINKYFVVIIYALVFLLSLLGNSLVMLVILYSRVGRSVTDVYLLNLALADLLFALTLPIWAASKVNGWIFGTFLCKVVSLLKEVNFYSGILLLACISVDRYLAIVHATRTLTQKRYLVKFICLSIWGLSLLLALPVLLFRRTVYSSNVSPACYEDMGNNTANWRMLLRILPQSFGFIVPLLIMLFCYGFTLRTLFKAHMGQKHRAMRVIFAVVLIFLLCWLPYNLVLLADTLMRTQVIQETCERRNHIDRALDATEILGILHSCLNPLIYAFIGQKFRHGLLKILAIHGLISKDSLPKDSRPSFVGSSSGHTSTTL
T2 sequence (P25024 whole entry): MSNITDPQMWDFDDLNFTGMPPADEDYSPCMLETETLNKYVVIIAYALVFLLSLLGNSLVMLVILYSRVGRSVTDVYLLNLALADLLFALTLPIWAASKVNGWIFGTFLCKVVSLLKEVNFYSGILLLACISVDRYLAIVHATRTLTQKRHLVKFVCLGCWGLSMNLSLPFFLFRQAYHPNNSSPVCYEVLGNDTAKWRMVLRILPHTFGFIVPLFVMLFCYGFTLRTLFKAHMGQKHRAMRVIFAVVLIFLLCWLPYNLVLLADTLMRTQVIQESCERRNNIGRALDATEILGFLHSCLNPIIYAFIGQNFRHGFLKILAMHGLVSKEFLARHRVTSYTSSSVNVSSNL
Format: functional
`CONC(=O)[C@H](C)c1ccc(CC(C)C)cc1` gave an IC50 of 1.8 nM.
